Data reported in PubChem BioAssay AID256 (DTP/NCI, 2004).
“And” between values parts separate entries of the source, which are not always exact repeats. Equal values may be shown once. Inconclusive results and toxic doses are left out. Rule for the calls: active = survival T/C of 150% or more; inactive = T/C below 125% in these data.

System: CD2F1 mice, L1210 leukemia ip, survival T/C
Experiment: NCI In Vivo Anticancer Drug Screen. Data for tumor model L1210 Leukemia (intraperitoneal) in CD2F1 (CDF1) mice
Settings: higher = longer survival
Procedure, shortened: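 Tumor-bearing mice (transplanted tumor) were split into treated and vehicle control groups, and the measured endpoint of each treated group was divided by that of its vehicle controls.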

[1] = endpoint: mean survival time, dose: 100.0 mg/kg/injection, schedule: Q04DX003 (ip), vehicle: saline with Tween-80
[2] = endpoint: mean survival time, dose: 200.0 mg/kg/injection, schedule: Q04DX003 (ip), vehicle: saline with Tween-80
[3] = endpoint: mean survival time, dose: 400.0 mg/kg/injection, schedule: Q04DX003 (ip), vehicle: saline with Tween-80
[4] = endpoint: mean survival time, dose: 50.0 mg/kg/injection, schedule: Q01DX009 (ip), vehicle: saline with Tween-80
[5] = endpoint: mean survival time, dose: 100.0 mg/kg/injection, schedule: Q01DX009 (ip), vehicle: saline with Tween-80
[6] = endpoint: mean survival time, dose: 200.0 mg/kg/injection, schedule: Q01DX009 (ip), vehicle: saline with Tween-80
[7] = endpoint: mean survival time, dose: 100.0 mg/kg/injection, schedule: Q01DX001 (ip), vehicle: saline with Tween-80
[8] = endpoint: mean survival time, dose: 200.0 mg/kg/injection, schedule: Q01DX001 (ip), vehicle: saline with Tween-80
[9] = endpoint: mean survival time, dose: 100.0 mg/kg/injection, schedule: Q01DX009 (ip), vehicle: Klucel (hydroxypropylcellulose) (HPC)
[10] = endpoint: mean survival time, dose: 200.0 mg/kg/injection, schedule: Q01DX009 (ip), vehicle: Klucel (hydroxypropylcellulose) (HPC)
[11] = endpoint: mean survival time, dose: 400.0 mg/kg/injection, schedule: Q01DX009 (ip), vehicle: Klucel (hydroxypropylcellulose) (HPC)

Measured: T/C

O=C1CSC(c2cccs2)N1c1nncs1 (stereo not given)
inactive: endpoint: median survival time, dose: 25.0 mg/kg/injection, schedule: Q01DX005 (ip), vehicle: Klucel (hydroxypropylcellulose) (HPC) 94 % of control | endpoint: median survival time, dose: 50.0 mg/kg/injection, schedule: Q01DX005 (ip), vehicle: Klucel (hydroxypropylcellulose) (HPC) 102 % of control and 104 % of control and 110 % of control | endpoint: median survival time, dose: 100.0 mg/kg/injection, schedule: Q01DX005 (ip), vehicle: Klucel (hydroxypropylcellulose) (HPC) 94 % of control and 96 % of control and 103 % of control | endpoint: median survival time, dose: 200.0 mg/kg/injection, schedule: Q01DX005 (ip), vehicle: Klucel (hydroxypropylcellulose) (HPC) 116 % of control and 94 % of control (2×) | endpoint: median survival time, dose: 400.0 mg/kg/injection, schedule: Q01DX005 (ip), vehicle: Klucel (hydroxypropylcellulose) (HPC) 107 % of control | endpoint: median survival time, dose: 800.0 mg/kg/injection, schedule: Q01DX005 (ip), vehicle: Klucel (hydroxypropylcellulose) (HPC) 115 % of control

Cc1ccccc1C[P+](c1ccccc1)(c1ccccc1)c1ccccc1
inactive: endpoint: mean survival time, dose: 1.0 mg/kg/injection, schedule: Q01DX009 (ip), vehicle: saline 88 % of control | endpoint: mean survival time, dose: 2.0 mg/kg/injection, schedule: Q01DX009 (ip), vehicle: saline 96 % of control | endpoint: mean survival time, dose: 4.0 mg/kg/injection, schedule: Q01DX009 (ip), vehicle: saline 92 % of control | endpoint: mean survival time, dose: 8.0 mg/kg/injection, schedule: Q01DX009 (ip), vehicle: saline 108 % of control

CC(=O)OCC1OC2OC(C)(C)OC2C2OC(C)(C)OC12 (stereo not given)
inactive: [1] 104 % of control | [2] 101 % of control | [3] 106 % of control

O=P(Oc1ccccc1)(Oc1ccccc1)C(Nc1ccccc1)c1cccnc1 (stereo not given)
inactive: [4] 102 % of control | [5] 97 % of control | [6] 94 % of control

CCCCNS(=O)(=O)c1cn(CCCC)c(=O)[nH]c1=O
inactive: endpoint: mean survival time, dose: 37.5 mg/kg/injection, schedule: Q01DX001 (ip), vehicle: saline with Tween-80 100 % of control | endpoint: mean survival time, dose: 150.0 mg/kg/injection, schedule: Q01DX001 (ip), vehicle: saline with Tween-80 96 % of control | endpoint: mean survival time, dose: 175.0 mg/kg/injection, schedule: Q01DX001 (ip), vehicle: saline with Tween-80 100 % of control

O=NO.O=NO.[NH-]C1CCCCC1[NH-].[Pd+2] (stereo not given)
inactive: endpoint: mean survival time, dose: 3.13 mg/kg/injection, schedule: Q04DX003 (ip), vehicle: dextrose 92 % of control | endpoint: mean survival time, dose: 6.25 mg/kg/injection, schedule: Q04DX003 (ip), vehicle: dextrose 93 % of control | endpoint: mean survival time, dose: 12.5 mg/kg/injection, schedule: Q01DX001 (ip), vehicle: dextrose 95 % of control | endpoint: mean survival time, dose: 12.5 mg/kg/injection, schedule: Q04DX003 (ip), vehicle: dextrose 98 % of control | endpoint: mean survival time, dose: 25.0 mg/kg/injection, schedule: Q01DX001 (ip), vehicle: dextrose 94 % of control | endpoint: mean survival time, dose: 50.0 mg/kg/injection, schedule: Q01DX001 (ip), vehicle: dextrose 91 % of control | endpoint: mean survival time, dose: 50.0 mg/kg/injection, schedule: Q04DX003 (ip), vehicle: dextrose 95 % of control | endpoint: mean survival time, dose: 100.0 mg/kg/injection, schedule: Q01DX001 (ip), vehicle: dextrose 109 % of control | endpoint: mean survival time, dose: 100.0 mg/kg/injection, schedule: Q04DX003 (ip), vehicle: dextrose 100 % of control

CC(C)C1OC(C(F)(F)F)(C(F)(F)Cl)CC1=O (stereo not given)
inactive: endpoint: mean survival time, dose: 100.0 mg/kg/injection, schedule: Q01DX001 (ip), vehicle: Klucel (hydroxypropylcellulose) (HPC) 86 % of control | endpoint: mean survival time, dose: 200.0 mg/kg/injection, schedule: Q01DX001 (ip), vehicle: Klucel (hydroxypropylcellulose) (HPC) 97 % of control | endpoint: mean survival time, dose: 400.0 mg/kg/injection, schedule: Q01DX001 (ip), vehicle: Klucel (hydroxypropylcellulose) (HPC) 98 % of control

CSc1ncc(C(=O)O)c(SC(C)C)n1
inactive: endpoint: mean survival time, dose: 50.0 mg/kg/injection, schedule: Q04DX003 (ip), vehicle: saline with Tween-80 91 % of control | [7] 102 % of control | [1] 93 % of control | [8] 92 % of control | [2] 87 % of control

COc1cc(OC)c(NC(=O)Oc2ccc(C(C)(C)C)cc2Br)cc1Cl
inactive: endpoint: mean survival time, dose: 12.5 mg/kg/injection, schedule: Q01DX009 (ip), vehicle: saline with Tween-80 97 % of control | endpoint: mean survival time, dose: 25.0 mg/kg/injection, schedule: Q01DX009 (ip), vehicle: saline with Tween-80 102 % of control | [4] 94 % of control | [5] 93 % of control | [6] 86 % of control

C=C(C)C12CC(COC(=O)c3ccccc3)C34OC5(OC1C3C1OC1(CO)C(O)C1(O)C(OC(=O)c3ccccc3)C(C)C(C(C)CCCCCCC5O)C14)O2 (stereo not given)
inactive: endpoint: mean survival time, dose: 1.5 micrograms/kg/injection, schedule: Q01DX009 (ip), vehicle: saline 103 % of control | endpoint: mean survival time, dose: 3.1 micrograms/kg/injection, schedule: Q01DX009 (ip), vehicle: saline 98 % of control | endpoint: mean survival time, dose: 6.2 micrograms/kg/injection, schedule: Q01DX009 (ip), vehicle: saline 97 % of control | endpoint: mean survival time, dose: 12.5 micrograms/kg/injection, schedule: Q01DX009 (ip), vehicle: saline 98 % of control

Cc1cc(N(C)C)c(C)cc1N=Nc1cc[n+]([O-])cc1
inactive: endpoint: mean survival time, dose: 56.3 mg/kg/injection, schedule: Q04DX002 (ip), vehicle: saline with Tween-80 96 % of control | endpoint: mean survival time, dose: 113.0 mg/kg/injection, schedule: Q04DX002 (ip), vehicle: saline with Tween-80 92 % of control

C=C1[C@@H](C)[C@H]2[C@H](Cc3ccccc3)NC(=O)[C@]23OC(=O)/C=C/[C@H](O)CCC[C@@H](C)C/C=C/[C@H]3[C@@H]1O
inactive: endpoint: mean survival time, dose: 0.5 mg/kg/injection, schedule: Q04DX002 (ip), vehicle: Klucel (hydroxypropylcellulose) (HPC) 100 % of control | endpoint: mean survival time, dose: 1.0 mg/kg/injection, schedule: Q04DX002 (ip), vehicle: Klucel (hydroxypropylcellulose) (HPC) 103 % of control | endpoint: mean survival time, dose: 2.0 mg/kg/injection, schedule: Q04DX002 (ip), vehicle: Klucel (hydroxypropylcellulose) (HPC) 100 % of control | endpoint: mean survival time, dose: 4.0 mg/kg/injection, schedule: Q04DX002 (ip), vehicle: Klucel (hydroxypropylcellulose) (HPC) 103 % of control | endpoint: mean survival time, dose: 8.0 mg/kg/injection, schedule: Q04DX002 (ip), vehicle: Klucel (hydroxypropylcellulose) (HPC) 95 % of control

O=S(=O)(OCCCCCOS(=O)(=O)c1cccnc1)c1cccnc1
inactive: endpoint: mean survival time, dose: 10.0 mg/kg/injection, schedule: Q04DX002 (ip), vehicle: saline with Tween-80 95 % of control | endpoint: mean survival time, dose: 40.0 mg/kg/injection, schedule: Q04DX002 (ip), vehicle: saline with Tween-80 98 % of control

O=[N+]([O-])c1ccc(C(Cl)S(=O)(=O)c2ccccc2)cc1 (stereo not given)
inactive: [9] 98 % of control | [10] 92 % of control | [11] 110 % of control

O=c1[nH]c(=O)n(C2CC(O)C(CO)O2)cc1/C=C/c1cccc([N+](=O)[O-])c1 (stereo not given)
inactive: endpoint: mean survival time, dose: 6.25 mg/kg/injection, schedule: Q01DX005 (ip), vehicle: distilled water + Tween-80 98 % of control | endpoint: mean survival time, dose: 12.5 mg/kg/injection, schedule: Q01DX005 (ip), vehicle: distilled water + Tween-80 97 % of control | endpoint: mean survival time, dose: 25.0 mg/kg/injection, schedule: Q01DX005 (ip), vehicle: distilled water + Tween-80 95 % of control | endpoint: mean survival time, dose: 50.0 mg/kg/injection, schedule: Q01DX005 (ip), vehicle: distilled water + Tween-80 93 % of control | endpoint: mean survival time, dose: 100.0 mg/kg/injection, schedule: Q01DX005 (ip), vehicle: distilled water + Tween-80 94 % of control

CCCCCCCC(=O)Nc1ccc(C)cc1C
inactive: [5] 91 % of control | [6] 98 % of control | endpoint: mean survival time, dose: 400.0 mg/kg/injection, schedule: Q01DX009 (ip), vehicle: saline with Tween-80 91 % of control

Cc1ccc(NC(=O)Oc2ccc(F)cc2Cl)cc1NC(=O)Oc1ccc(F)cc1Cl
inactive: [7] 103 % of control | [8] 101 % of control | endpoint: mean survival time, dose: 400.0 mg/kg/injection, schedule: Q01DX001 (ip), vehicle: saline with Tween-80 95 % of control

C=C[Si]12OCCN(CCO1)CCO2
inactive: endpoint: mean survival time, dose: 12.5 mg/kg/injection, schedule: Q01DX009 (ip), vehicle: Klucel (hydroxypropylcellulose) (HPC) 97 % of control and 105 % of control | endpoint: mean survival time, dose: 25.0 mg/kg/injection, schedule: Q01DX009 (ip), vehicle: Klucel (hydroxypropylcellulose) (HPC) 95 % of control and 96 % of control | endpoint: mean survival time, dose: 50.0 mg/kg/injection, schedule: Q01DX009 (ip), vehicle: Klucel (hydroxypropylcellulose) (HPC) 92 % of control and 100 % of control | [9] 92 % of control and 94 % of control | [10] 88 % of control and 94 % of control | [11] 88 % of control and 95 % of control

CC(=O)OCC(Br)C(Br)COC(C)=O (stereo not given)
inactive: [1] 100 % of control | [2] 100 % of control | [3] 97 % of control

CC1=NCCCN=C(C)C(C)=NCCCN=C1C.[Ni+2].[O-][Cl+3]([O-])([O-])O
inactive: endpoint: mean survival time, dose: 25.0 mg/kg/injection, schedule: Q04DX003 (ip), vehicle: saline 91 % of control | endpoint: mean survival time, dose: 50.0 mg/kg/injection, schedule: Q04DX002 (ip), vehicle: saline with Tween-80 96 % of control | endpoint: mean survival time, dose: 50.0 mg/kg/injection, schedule: Q04DX003 (ip), vehicle: saline 94 % of control
